# Assay results taken from US9517241B2, “Amelioration of intestinal fibrosis and treatment of Crohn's disease” (THE REGENTS OF THE UNIVERSITY OF MICHIGAN, priority 2013, dated 2016).
# How the values were obtained:
# Assay type in all cases: cell-based, human
# [1] = tested on: fibrogenic genes (col1A1, Fn1, MLCK, ET-1) in Ccd-18co colonic myofibroblasts; test: TGFβ-stimulated colonic myofibroblasts, fibrogenic gene expression; conditions: TGFβ1-stimulated Ccd-18co colonic myofibroblasts
# Description: (§1) Cells were plated at 30-40% confluence. To stimulate a fibrotic phenotype, Ccd-18co cells were serum-starved for 24 h prior to treatment with 1 ng/ml TGFβ or 1 ng/ml TGFβ and increasing doses of CARD-024 (10-1000 nM) for 48 h. Given ethanol was used to dilute CARD-024, ethanol was added to the untreated and TGFβ treated cells to a final concentration of 0.1%. For stiffness experiments, low-passage number Ccd-18co cells were seeded at 1×10^5 cells/ml on 6-well plates containing collagen-coated acrylamide gels corresponding to soft (4.3 kPa, 0.02% bisacrylamide) or stiff (28.1 kPa, 0.16%) matrices. Cells were allowed to attach to the matrix for 4 h and then the gels were transferred to new wells to avoid paracrine signaling from cells attached to the plastic well bottom. […]
# (§2) RNA from Ccd-18co cells was extracted using the RNeasy kit (Qiagen, Valencia, Calif.). cDNA was generated by reverse transcription of 1 μg of total RNA using the Superscript First Strand RT kit (Invitrogen, Carlsbad, Calif.). Quantitative real-time PCR (qPCR) was performed for MLCK, IL-1β, PTGS2, ET-1, and GAPDH with the TaqMan gene expression assays (ABI, Foster City, Calif.) on a Bio-Rad iCycler real-time PCR system. […] Gene expression was normalized to GAPDH as the endogenous control, and fold-changes (RQ) relative to untreated controls were calculated using the […] (Livak and Schmittgen, 2001).
# Fn-1 gene expression = test: Matrix stiffness model: expression of Fn-1; conditions: CARD-024 treatment
# Description: (§3) Cells were plated at 30-40% confluence. To stimulate a fibrotic phenotype, Ccd-18co cells were serum-starved for 24 h prior to treatment with 1 ng/ml TGFβ or 1 ng/ml TGFβ and increasing doses of CARD-024 (10-1000 nM) for 48 h. Given ethanol was used to dilute CARD-024, ethanol was added to the untreated and TGFβ treated cells to a final concentration of 0.1%. For stiffness experiments, low-passage number Ccd-18co cells were seeded at 1×10^5 cells/ml on 6-well plates containing collagen-coated acrylamide gels corresponding to soft (4.3 kPa, 0.02% bisacrylamide) or stiff (28.1 kPa, 0.16%) matrices. Cells were allowed to attach to the matrix for 4 h and then the gels were transferred to new wells to avoid paracrine signaling from cells attached to the plastic well bottom. For the CARD-024 stiffness experiments, cells were plated as described above and serum-starved overnight prior to treatment with 1000 nM of CARD-024 diluted in 100% ethanol for 24 h. The 1000 nM CARD-024 dose was selected from the results of the TGFβ experiments. Since ethanol was used to dilute CARD-024, ethanol was added to untreated cells to a final concentration of 0.1%.Experiments were performed on early (4 to 7) passage cells. Cultures were routinely assayed for mycoplasma contamination.
# (§4) Prior to seeding with colonic myofibroblasts, the acrylamide gels were collagen-coated. […]
# ET-1 gene expression = test: Matrix stiffness model: QRT-PCR of ET-1; conditions: high stiffness conditions, 1000 nM CARD-024
# Description: as §1, §2
# [2] = tested on: PTGS2 (which encodes the COX-2 enzyme); test: Matrix stiffness model: QRT-PCR of PTGS2; conditions: low and high stiffness, 1000 nM CARD-024
# Description: as §1, §2
# [3] = tested on: Ccd-18co colonic myofibroblasts; test: Matrix stiffness model: cell morphology, cell length and cell count (microscopy); conditions: for dendrite length: 1000 nM CARD-024, 24 h
# Description: as §3
# Collagen-coated polyacrylamide gels corresponding to physiological stiffnesses of 2.6 kPa to 28.1 kPa were generated using varying ratios of 40% acrylamide to 2% bisacrylamide (Bio-Rad, Hercules, Calif.) (Aplin and Hughes, 1981; Pelham and Wang, 1998). Specifically, an aqueous solution of 0.10% ammonium persulfate (Bio-Rad), 0.15% TEMED (Bio-Rad), 40% acrylamide solution was supplemented with 0.01%, 0.02%, 0.08%, or 0.16% bisacrylamide. The acrylamide gels were polymerized on a NaOH treated, amino-silanated (3-aminopropyltriethoxysilane), and glutaraldehyde treated 25 mm round glass coverslip. […] of each acrylamide/bisacrylamide solution was filter sterilized and pipetted unto a chloro-silanated glass surface treated with dichlorodimethylsilane (DCDMS) and a treated coverslip was inverted onto the acrylamide/biacrylamide solution. The acrylamide matrix was allowed to polymerize for 10 min between the two surfaces and transferred to a 6-well tissue culture plate containing sterile PBS. As determined by a series of stability experiments (data not shown), the acrylamide gels were stable for at least 1 month. […]
# Cells were photographed using a Leica (Leica Microsystems Inc., Buffalo Grove, Ill.) DMIRB inverted microscope and photographed with an Olympus DP-30 camera (Center Valley, Pa.). Cell length was determined from photomicrographs using ImageJ (NIH, Bethesda, Md.). Cell count was determined from a minimum of 3 representative photographs of a 100× magnification field. […]
# [4] = tested on: Ccd-18co colonic myofibroblasts; test: Matrix stiffness model: confocal immunofluorescence of focal adhesions (vinculin) and actin stress fibers (phalloidin); conditions: stiff substrate, 1000 nM CARD-024
# Description: as §3, with “Since ethanol was used to dilute CARD-024, ethanol was added to untreated cells to a final concentration of 0.1%.Experiments were performed on early (4 to 7) passage cells. Cultures were routinely assayed for mycoplasma contamination.” left out
# Expression of activated myofibroblast markers was analyzed by confocal immunofluorescence microscopy using the Olympus FluoView™ FV500/IX system (Olympus America, Center Valley, Pa.) at the University of Michigan Microscopy and Image Analysis Laboratory. […]
# [5] = tested on: phosphorylation of focal adhesion kinase (FAK); test: Matrix stiffness model: pFAK protein expression (Western blot); conditions: high stiffness matrix, 1000 nM CARD-024
# Description: as §1
# pFAK was detected using a rabbit polyclonal phosphospecific antibody against Tyr-397-FAK (Invitrogen) at 1:5000. […] After washing, the membranes were incubated with the appropriate secondary antibody (anti-mouse IgG+HRP or anti-rabbit IgG+HRP, Amersham, Piscataway, N.J.) for 1 h at room temperature and the signal was detected by the Pierce detection system (Pierce, Rockford, Ill.). Autoradiographs were scanned and quantitated using ImageJ analysis software (NIH, Bethesda, Md.).
# [6] = tested on: αSMA protein expression in Ccd-18co cells; test: TGFβ-stimulated colonic myofibroblasts, αSMA protein expression (Western blot)
# Description: Colonic human myofibroblast Ccd-18co cells (CRL-1459 from ATCC) were cultured in alpha-MEM (Invitrogen, Carlsbad, Calif.) supplemented with 10% fetal bovine serum and sub-cultured weekly.
# Cells were plated at 30-40% confluence. To stimulate a fibrotic phenotype, Ccd-18co cells were serum-starved for 24 h prior to treatment with 1 ng/ml TGFβ or 1 ng/ml TGFβ and increasing doses of CARD-024 (10-1000 nM) for 48 h. Given ethanol was used to dilute CARD-024, ethanol was added to the untreated and TGFβ treated cells to a final concentration of 0.1%. […]
# (§5) Total protein was separated by SDS polyacrylamide gel electrophoresis (Bio-Rad,) with prestained protein markers loaded for molecular mass determination (Invitrogen, Carlsbad, Calif.), and transferred to PVDF membranes (Amersham Biosciences, Piscataway, N.J.). Membranes were blocked in 5% milk/TBST solution for 1 h at room temperature or overnight at 4° C. α-smooth muscle actin was detected by incubating the membrane overnight at 4° C. with mouse anti-human monoclonal antibody (Sigma, St. Louis, Mo.) at 1:5000 dilution in 5% milk/TBST.
# (§6) pFAK was detected using a rabbit polyclonal phosphospecific antibody against Tyr-397-FAK (Invitrogen) at 1:5000. […] Autoradiographs were scanned and quantitated using ImageJ analysis software (NIH, Bethesda, Md.).
# MLCK gene expression = test: Matrix stiffness model: QRT-PCR of MLCK; conditions: high stiffness substrate, 1000 nM CARD-024
# Description: as §1, §2
# IL-1β expression = test: Matrix stiffness model: QRT-PCR of IL-1β; conditions: 1000 nM CARD-024, relative to untreated/low stiffness
# Description: as §1, §2
# [7] = tested on: αSMA protein expression in colonic myofibroblasts; test: Matrix stiffness model: αSMA protein expression (Western blot); conditions: high stiffness substrate, 1000 nM CARD-024
# Description: as §1, with “matrices.” for “matrices. Cells were allowed to attach to the matrix for 4 h and then the gels were transferred to new wells to avoid paracrine signaling from cells attached to the plastic well bottom.”
# as §5, §6
# colA1 gene expression = test: Matrix stiffness model: expression of colA1; conditions: CARD-024 treatment
# Description: as §3, §4
smiles,measurement,setting,value
"C=C1/C(=C\C=C2/CCC[C@]3(C)[C@@H]([C@H](C)CC[C@@H](CC)C(C)C)CC[C@@H]23)C[C@@H](O)C[C@@H]1O [CARD-024, (1S,3R)-(5Z,7E)-9,10-Secositosta-5,7,10(19)-triene-1,3-diol]",fibrogenic gene expression,[1],minimal impact on fibrogenic gene expression
same,Fn-1 expression,Fn-1 gene expression,did not repress
same,ET-1 expression,ET-1 gene expression,significantly repressed ET-1 expression in high stiffness conditions to levels indistinguishable from low stiffness conditions
same,PTGS2 expression,[2],induced PTGS2 at both low and high stiffness
same,dendrite length,[3]; high stiffness (28.1 kPa) matrix,145 μm
same,cell morphology,"[3]; high stiffness substrate, 1000 nM CARD-024",repressed the effects of matrix stiffness on cell morphology
same,dendrite length,[3]; low stiffness (4.3 kPa) matrix,146 μm
same,reduction in cell number compared to untreated cells,"[3]; stiff matrix (28.1 kPa), 1000 nM CARD-024, not significant",50%
same,focal adhesions (vinculin staining),[4],inhibited focal adhesion maturation
same,FAK phosphorylation,[5],inhibited FAK phosphorylation
same,"αSMA protein expression, dose response","[6]; Ccd-18co cells stimulated with TGFβ, 10-1000 nM CARD-024",attenuated αSMA protein expression in a dose-responsive manner
same,attenuation of αSMA protein expression,"[6]; Ccd-18co cells, 1 ng/ml TGFβ, 1000 nM CARD-024, 48 h, normalized to GAPDH, p=0.012",2 fold
same,MLCK expression,MLCK gene expression,significantly repressed MLCK expression to levels comparable to untreated cells on the low stiffness substrate
same,induction of IL-1β expression,"IL-1β expression; high stiffness, p=0.002",1.8 fold
same,induction of IL-1β expression,IL-1β expression; low stiffness,4 fold
same,αSMA expression,[7],repressed αSMA expression on the high stiffness substrate to levels indistinguishable from the low stiffness substrate
same,colA1 expression,colA1 gene expression,did not repress
